Measured values: patent US8188059B2, “Compounds and methods for modulating expression of GCGR” (Isis Pharmaceuticals, Inc., priority 2006, dated 2012)
Strand notation (5' to 3'): a small letter for the sugar, then the base; units joined by * are phosphorothioate-linked, units joined directly phosphodiester-linked; [ ] holds rarer units or linkages, { } end groups; capitals alone tell only the bases. e = 2'-O-(2-methoxyethyl) (MOE); l = locked nucleic acid (LNA); [5mC] = 5-methylcytosine; d = 2'-deoxy (DNA)

Experiments:
[1] = Transaminase levels, liver and spleen weights, body weight (Example 6, Table 47); type: in vivo, mouse; conditions: 8 μmol/kg single i.p.; 72 h; Balb/c mice
From the text: (§1) Each dose group consisted of four animals. Shown in Table 46 are the sequences and motifs of the PTEN antisense compounds used in this study. Bolded residues indicate 2′-O-methoxyethyl moieties (2′-MOE) and italicized residues indicate Methyleneoxy BNA nucleotides. Each antisense compound comprises phosphorothioate linkages throughout. In addition, the cytosine residues in the gap of ISIS 384073 and in the wings of ISIS 392056, ISIS 392057, ISIS 392061 and ISIS 392063 are replaced with 5-methylcytosines. Antisense compounds target published PTEN nucleic acids, including Genbank Accession No. U92437.1 (SEQ ID NO: 13).
(§2) Mice were sacrificed 72 hours following injection to determine serum transaminase levels (Table 47); liver and spleen weights (Table 47); and PTEN mRNA levels in liver, kidney and fat (Table 48), according to procedures described herein and well know to one of ordinary skill in the art.

PTEN mRNA = PTEN mRNA levels in liver, kidney and fat, Balb/c mice, single 8 μmol/kg i.p. (Example 6, Table 48); type: in vivo, mouse; conditions: 8 μmol/kg single i.p., 72 h, saline = 100
From the text: as §1, §2

[2] = HbA1c status in ZDF rats (Example 16, Table 72); type: in vivo, rat; conditions: 400 nM/kg i.p. once a week for twelve weeks; for Percentage HbA1c on specific dates, Day 40: Day 40, p < 0.001; for Percentage HbA1c on specific dates, Day 55: Day 55, p < 0.001; for Percentage HbA1c on specific dates, Day 68: Day 68, p < 0.001
Experimental: (§3) ISIS 388625, 388626 and control oligo ISIS 388628 were analyzed for their effect on ZDF rat plasma glucose levels and HbA1c. The leptin receptor deficient Zucker diabetic fatty (ZDF) rat is a useful model for the investigation of type 2 diabetes. Diabetes develops spontaneously in these male rats at ages 8-10 weeks, and is associated with hyperphagia, polyuria, polydipsia, and impaired weight gain, symptoms which parallel the clinical symptoms of diabetes (Phillips M S, et al., 1996, Nat Genet. 13, 18-19). Six week old ZDF rats were injected intraperitoneally with short antisense compound at a dose of 400 nM/kg once a week for twelve weeks. Data are illustrated in Tables 71 and 72.

[3] = Plasma glucose in ZDF rats, once a week for twelve weeks (Example 16, Table 71); type: in vivo, rat
Experimental: as §3

mouse SGLT2 mRNA = experiment: Mouse SGLT2 mRNA levels in kidney, MOE versus Methyleneoxy BNA gapmers, Balb/c mice (Example 15, Table 69); type: in vivo
Experimental: The effect of ISIS 379692 1-10-1 MOE gapmer and ISIS 388625 2-8-2 MOE gapmer are compared with the effect of ISIS 392170 1-10-1 Methyleneoxy BNA Gapmer and ISIS 392173 2-8-2 Methyleneoxy BNA Gapmer (see Table 69) on mouse SGLT2 mRNA levels in vivo. Data are taken from three experiments in which male 6-week old Balb/c mice were dosed twice per week for three weeks with 5, 25 and 125 nmol/kg of either the ISIS 379692 1-10-1 MOE gapmer or the ISIS 388625 2-8-2 MOE gapmer given by intraperitoneal injection. Mice were sacrificed 48 hours following last administration and evaluated for SGLT2 mRNA levels in kidney. Target levels were determined by RT, real-time PCR as described by other examples herein. PCR results were normalized to an internal ISIS control. The data are expressed as percent change (“+” indicates an increase, “−” indicates a decrease) relative to saline treated animals and are illustrated in Table 69.

[4] = Day 10, 400 nM/kg i.p. once a week for twelve weeks
[5] = Day 40, 400 nM/kg i.p. once a week for twelve weeks
[6] = Day 55, 400 nM/kg i.p. once a week for twelve weeks
[7] = Day 66, 400 nM/kg i.p. once a week for twelve weeks
[8] = 5 nmol/kg i.p. twice per week for three weeks
[9] = 25 nmol/kg i.p. twice per week for three weeks
[10] = 125 nmol/kg i.p. twice per week for three weeks

| Substance | ALT [1] [IU/L] | AST [1] [IU/L] | Liver Weight [1] [% Saline] | Spleen Weight [1] [% Saline] | % PTEN mRNA levels in Fat (PTEN mRNA) [%] | % PTEN mRNA levels in Kidney (PTEN mRNA) [%] | % PTEN mRNA levels in Liver (PTEN mRNA) [%] | Percentage HbA1c on specific dates, Day 40 [2] [%] | Percentage HbA1c on specific dates, Day 55 [2] [%] | Percentage HbA1c on specific dates, Day 68 [2] [%] | Plasma glucose levels [3, 4] [mg/dL] | Plasma glucose levels [3, 5] [mg/dL] | Plasma glucose levels [3, 6] [mg/dL] | Plasma glucose levels [3, 7] [mg/dL] | SGLT2 mRNA, percent change relative to saline treated animals (mouse SGLT2 mRNA; [8]) [percent change] | SGLT2 mRNA, percent change relative to saline treated animals (mouse SGLT2 mRNA; [9]) [percent change] | SGLT2 mRNA, percent change relative to saline treated animals (mouse SGLT2 mRNA; [10]) [percent change] |
| --- | --- | --- | --- | --- | --- | --- | --- | --- | --- | --- | --- | --- | --- | --- | --- | --- | --- |
| 141923 (antisense CCTTCCCTGAAGGTTCCTCC; sugars from the 5' end e5 d10 e5, all phosphorothioate, methylation of C not given here) [compound 141923] | 34.8 | 89.5 | 101 | 108 | 118 | 133 | 102 |  |  |  |  |  |  |  |  |  |  |
| 384073 (antisense lG*lC*lT*dA*dG*d[5mC]*d[5mC]*dT*d[5mC]*dT*dG*dG*dA*lT*lT*lT) [compound 384073] | 29.3 | 57.8 | 115 | 111 | 77 | 74 | 24 |  |  |  |  |  |  |  |  |  |  |
| 388625 (antisense eT*eG*dT*dT*d[5mC]*d[5mC]*dA*dG*d[5mC]*d[5mC]*e[5mC]*eA) [compound 388625] |  |  |  |  |  |  |  | 6.5 | 5.8 | 4.3 | 435.5 | 278.7 | 213.8 | 325.5 |  |  |  |
| 388628 (antisense eT*eA*dG*d[5mC]*d[5mC]*dG*d[5mC]*d[5mC]*d[5mC]*dA*e[5mC]*eA) [compound 388628] |  |  |  |  |  |  |  | 8.0 | 9.1 | 7.8 | 436.0 | 502.0 | 411.2 | 668.8 |  |  |  |
| 391172 (antisense lC*lT*dA*dG*dC*dC*dT*dC*dT*dG*dG*dA*lT*lT*lT) [compound 391172] | 32.8 | 48.5 | 120 | 112 | 101 | 63 | 18 |  |  |  |  |  |  |  |  |  |  |
| 392061 (antisense l[5mC]*lT*dA*dG*dC*dC*dT*dC*dT*dG*dG*dA*lT*lT) [compound 392061] | 42.0 | 189 | 123 | 111 | 85 | 61 | 24 |  |  |  |  |  |  |  |  |  |  |
| ISIS 392170: SGLT2; 1-10-1 Methyleneoxy BNA Gapmer (antisense lT*dG*dT*dT*d[5mC]*d[5mC]*dA*dG*d[5mC]*d[5mC]*d[5mC]*lA) |  |  |  |  |  |  |  |  |  |  |  |  |  |  | −23 | −54 | −69 |
| ISIS 392173: SGLT2; 2-8-2 Methyleneoxy BNA Gapmer (antisense lT*lG*dT*dT*d[5mC]*d[5mC]*dA*dG*d[5mC]*d[5mC]*l[5mC]*lA) |  |  |  |  |  |  |  |  |  |  |  |  |  |  | −44 | −57 | −75 |
